Assay results: PubChem BioAssay (NCI)
Where “and” joins values, the source holds several entries; their conditions need not be identical. Equal values may be shown once.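 Interpolation was linear, between the two tested concentrations surrounding the appropriate level; five concentrations were tested over 48 hours in 96-well plates. TGI marks complete inhibition of growth.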

Columns and labels:
Test in all cases: growth of human tumour cells (NCI), 48 h
A549 NSCLC = test system: A549 NSCLC
CCRF-CEM leukemia = test system: CCRF-CEM leukemia
COLO 205 colon = test system: COLO 205 colon
HCT-116 colon = test system: HCT-116 colon
HOP-62 NSCLC = test system: HOP-62 NSCLC
M19-MEL melanoma = test system: M19-MEL melanoma
NCI-H23 lung = test system: NCI-H23 lung
NCI-H460 lung = test system: NCI-H460 lung
OVCAR-5 ovarian = test system: OVCAR-5 ovarian
SK-MEL-2 melanoma = test system: SK-MEL-2 melanoma
UO-31 renal = test system: UO-31 renal
HCT-15 colon = test system: HCT-15 colon
NCI-H522 lung = test system: NCI-H522 lung
OVCAR-4 ovarian = test system: OVCAR-4 ovarian
HS 578T breast = test system: HS 578T breast
MCF7 breast = test system: MCF7 breast
MDA-MB-231 breast = test system: MDA-MB-231 breast
MDA-MB-435 = test system: MDA-MB-435
MDA-N = test system: MDA-N
NCI/ADR-RES ovarian = test system: NCI/ADR-RES ovarian

SMILES | TGI (A549 NSCLC) | TGI (CCRF-CEM leukemia) | TGI (COLO 205 colon) | TGI (HCT-116 colon) | TGI (HOP-62 NSCLC) | TGI (M19-MEL melanoma) | TGI (NCI-H23 lung) | TGI (NCI-H460 lung) | TGI (OVCAR-5 ovarian) | TGI (SK-MEL-2 melanoma) | TGI (UO-31 renal) | TGI (HCT-15 colon) | TGI (NCI-H522 lung) | TGI (OVCAR-4 ovarian) | TGI (HS 578T breast) | TGI (MCF7 breast) | TGI (MDA-MB-231 breast) | TGI (MDA-MB-435) | TGI (MDA-N) | TGI (NCI/ADR-RES ovarian)
Clc1ccc2c(c1)C1C(CO2)C(c2ccccc2)=NN1c1ccccc1 (stereo not drawn) | > 100 µM | 99.1 µM | > 100 µM | 62.4 µM | > 100 µM | > 100 µM | 99.8 µM | > 100 µM | > 100 µM | 75.4 µM | 53.9 µM | – | – | – | – | – | – | – | – | –
COc1ccc(C(=O)Cc2c(C(=O)c3ccccc3)c3ccccc3n2C(=O)c2ccccc2)cc1 | > 100 µM | > 100 µM | > 100 µM | > 100 µM | > 100 µM | > 100 µM | > 100 µM | > 100 µM | > 100 µM | > 100 µM | > 100 µM | > 100 µM | > 100 µM | > 100 µM | – | – | – | – | – | –
CC(=O)OC[C@]1(O)CC[C@@]23CC1C[C@@H]2CCC1C(C)(C)CCC[C@@]13C (stereo partly drawn) | 29.6 µM | 25.7 µM | 33.1 µM | 24.2 µM | 32.2 µM | 29.4 µM | 26.4 µM | 30.2 µM | 23.5 µM | – | 29.9 µM | 30 µM | 14.7 µM | 30 µM | – | – | – | – | – | –
COC(=O)N1CCc2c(nc(N(C)CCO)[nH]c2=O)C1 | > 100 µM | > 100 µM | > 100 µM | > 100 µM | > 100 µM | > 100 µM | > 100 µM | > 100 µM | > 100 µM | > 100 µM | > 100 µM | > 100 µM | > 100 µM | – | – | – | – | – | – | –
CC(=O)OC1COC(Nc2ccc(C(C)=O)cc2)C(OC(C)=O)C1OC(C)=O (stereo not drawn) | > 100 µM | > 100 µM | > 100 µM | – | > 100 µM | > 100 µM | > 100 µM | > 100 µM | – | > 100 µM | > 100 µM | > 100 µM | > 100 µM | > 100 µM | – | – | – | – | – | –
CCN=C(NNc1ccc([N+](=O)[O-])cc1)P(=O)(OC(C)C)OC(C)C | > 100 µM | > 100 µM | > 100 µM | > 100 µM | > 100 µM | > 100 µM | > 100 µM | > 100 µM | > 100 µM | > 100 µM | > 100 µM | > 100 µM | > 100 µM | > 100 µM | – | – | – | – | – | –
COc1cc(OC)c2c(=O)cc(-c3ccccc3F)[nH]c2c1 | > 100 µM | > 100 µM | > 100 µM | > 100 µM | > 100 µM | – | > 100 µM | > 100 µM | > 100 µM | > 100 µM | 84.5 µM | > 100 µM | > 100 µM | 53.3 µM | > 100 µM | > 100 µM | > 100 µM | > 100 µM | > 100 µM | > 100 µM
O=c1[nH]/c(=C/c2ccc(OCc3ccccc3)cn2)c(=O)[nH]/c1=C/c1ccc([N+](=O)[O-])cc1 | > 100 µM | > 100 µM | > 100 µM | > 100 µM | > 100 µM | – | > 100 µM | > 100 µM | > 100 µM | > 100 µM | > 100 µM | > 100 µM | > 100 µM | > 100 µM | > 78.4 µM | > 100 µM | > 100 µM | > 100 µM | > 100 µM | > 100 µM
CC(C)(C)C(=O)C(C(=O)C(C)(C)C)C(=O)C(C)(C)C | > 100 µM | > 100 µM | > 100 µM | > 100 µM | > 100 µM | – | > 100 µM | > 100 µM | > 100 µM | > 100 µM | > 100 µM | > 100 µM | > 100 µM | > 100 µM | > 100 µM | > 100 µM | > 100 µM | > 100 µM | > 100 µM | > 100 µM
c1cc(Sc2nc(Sc3ccncc3)nc(Sc3ccncc3)n2)ccn1 | > 100 µM | > 100 µM | > 100 µM | > 100 µM | > 100 µM | – | > 100 µM | > 100 µM | > 100 µM | > 100 µM | > 100 µM | > 100 µM | > 100 µM | > 100 µM | > 100 µM | > 100 µM | > 100 µM | > 100 µM | > 100 µM | > 100 µM
Nc1ccc2nc(Nc3ccc(F)cc3)cnc2c1 | > 100 µM | > 100 µM | > 100 µM | > 100 µM | > 100 µM | > 100 µM | – | > 100 µM | > 100 µM | > 100 µM | > 100 µM | > 100 µM | > 100 µM | > 100 µM | – | – | – | – | – | –
CC(=O)OCC(OC(C)=O)C(OC(C)=O)C(OC(C)=O)C(C=NN(C(C)=O)S(=O)(=O)c1ccc(/C=C2\NC(=O)N(C)C2=O)cc1)OC(C)=O (stereo not drawn) | > 100 µM | 41.6 µM | > 100 µM | 47.2 µM and 37.4 µM | > 100 µM | – | > 100 µM | 50.3 µM and 56.5 µM | > 100 µM | 58 µM and > 100 µM | > 100 µM | 61.9 µM and 67.1 µM | 72.9 µM | 95.7 µM and > 100 µM | > 100 µM | > 100 µM | > 100 µM and 96.4 µM | > 100 µM | > 100 µM | > 100 µM
Cc1nc(Nc2ccccc2Cl)sc1C(=O)CC(=O)C(=O)Nc1c(Cl)cccc1Cl | > 100 µM | > 100 µM | 38.7 µM | 52 µM | > 100 µM | – | > 100 µM | > 100 µM | > 100 µM | 56.2 µM | 86.1 µM | > 100 µM | 60.4 µM | > 100 µM | > 100 µM | > 100 µM | 42.9 µM | 50 µM | > 100 µM | 54.1 µM
CCOP(=O)(CCCC(O)CNc1cc(Cl)nc(N)n1)OCC (stereo not drawn) | > 100 µM | > 100 µM | > 100 µM | > 100 µM | > 100 µM | – | > 100 µM | > 100 µM | > 100 µM | > 100 µM | > 100 µM | > 100 µM | > 100 µM | > 100 µM | > 100 µM | > 100 µM | > 100 µM | > 100 µM | > 100 µM | > 100 µM
